Numbered stars: 1 amine (or outer) side, 2 acyl side, 3 side chain; on linkers, the order of the positions; unused ones are H or OH. Bridge positions count the residues as written; N and C are the ends. Square brackets hold non-standard residues; d marks the D form. Side chains are listed from the residue outwards. Peptide text beside a SMILES is read from it. * marks the point of attachment. Trp(1-CH2COOH) = N[C@@H](Cc1cn(CC(=O)O)c2ccccc12)C(=O)O; NMePhe(4-COOH) = CN[C@@H](Cc1ccc(C(=O)O)cc1)C(=O)O; X1 = O=C([C@H](Cc1cccc(C(=O)[*:3])c1)N[*:1])[*:2]; Nle(6-morpholino) = N[C@@H](CCCCN1CCOCC1)C(=O)O; Phe(3-COOH) = N[C@@H](Cc1cccc(C(=O)O)c1)C(=O)O; NMePhe(3-OMe) = CN[C@@H](Cc1cccc(OC)c1)C(=O)O; Trp(7-aza) = N[C@@H](Cc1c[nH]c2ncccc12)C(=O)O; NH(CH2CH2O)8Me = COCCOCCOCCOCCOCCOCCOCCOCCN*; NMePhe(3-Cl) = CN[C@@H](Cc1cccc(Cl)c1)C(=O)O; Piperazinyl(4-CH2COOH) = O=C(O)CN1CCN(*)CC1; 3Pal(6-NH2) = Nc1ccc(C[C@H](N)C(=O)O)cn1; NMeW = CN[C@@H](Cc1c[nH]c2ccccc12)C(=O)O; NMeY = CN[C@@H](Cc1ccc(O)cc1)C(=O)O; Nva(3-Et) = CCC(CC)[C@H](N)C(=O)O; NMeF = CN[C@@H](Cc1ccccc1)C(=O)O; 4Pal = N[C@@H](Cc1ccncc1)C(=O)O; PEG4 = NCCOCCOCCOCCOCCC(=O)O; Carboxymethyl = O=C(O)C*; CO = O=C([*:1])[*:2]; NH(CH2)3NH2 = NCCCN*
How the values were obtained:
[1] = target: T1, human transferrin receptor (hTfR) (Homo sapiens, UniProt P02786); assay: SPR measurement under pH 6.0 conditions (Biacore T200, NTA chip, immobilized hTfR); assay type: binding; settings: read-out: hTfR SPR pH6.0 KD
T1 sequence (P02786 whole entry): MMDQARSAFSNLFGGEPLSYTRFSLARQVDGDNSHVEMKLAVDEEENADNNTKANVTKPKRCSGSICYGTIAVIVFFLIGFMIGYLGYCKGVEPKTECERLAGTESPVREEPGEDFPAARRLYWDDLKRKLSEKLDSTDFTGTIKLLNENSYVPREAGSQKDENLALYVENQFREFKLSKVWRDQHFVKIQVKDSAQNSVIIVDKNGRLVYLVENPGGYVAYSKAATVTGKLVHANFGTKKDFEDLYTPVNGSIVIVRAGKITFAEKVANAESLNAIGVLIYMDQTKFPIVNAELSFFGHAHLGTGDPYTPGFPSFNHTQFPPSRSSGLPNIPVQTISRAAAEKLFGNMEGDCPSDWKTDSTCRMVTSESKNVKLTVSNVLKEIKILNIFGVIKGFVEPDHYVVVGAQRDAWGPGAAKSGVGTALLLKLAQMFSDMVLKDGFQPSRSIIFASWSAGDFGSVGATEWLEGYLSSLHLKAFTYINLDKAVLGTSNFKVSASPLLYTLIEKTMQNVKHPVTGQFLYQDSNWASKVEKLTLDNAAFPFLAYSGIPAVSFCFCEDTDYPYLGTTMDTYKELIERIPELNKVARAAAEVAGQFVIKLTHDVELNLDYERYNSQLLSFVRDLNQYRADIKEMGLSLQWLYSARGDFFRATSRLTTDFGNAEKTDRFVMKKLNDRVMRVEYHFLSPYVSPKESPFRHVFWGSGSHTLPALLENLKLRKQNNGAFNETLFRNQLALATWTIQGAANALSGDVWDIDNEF

[2] = target: T1, human transferrin receptor (hTfR); assay: SPR measurement under pH 7.4 conditions (Biacore T200, CM3 chip, hTfR captured by His Tag antibody); assay type: binding; settings: read-out: hTfR SPR pH7.4 KD
[3] = SPR, pH 6.0, peptide with the linker named in the table
[4] = SPR, pH 7.4, peptide with the linker named in the table

Row | SMILES | Kd [1, 3] | Kd [2, 4] | Kd ([1]; pH 6.0, single-cycle kinetics) | Kd ([2]; pH 7.4, single-cycle kinetics)
1 | CC[C@H](C)[C@@H]1NC(=O)[C@H](Cc2ccc(OCC(=O)O)cc2)NC(=O)[C@H](Cc2ccc(N)nc2)NC(=O)[C@H](CC(N)=O)NC(=O)[C@H](Cc2c[nH]c3ccccc23)NC(=O)[C@H](C(C)C)NC(=O)[C@H](Cc2cccc(Cl)c2)N(C)C(=O)[C@H](C(C)C)NC(=O)[C@H](C)NC(=O)CSC[C@@H](C(=O)NCCOCCOCCOCCOCCC(N)=O)NC(=O)[C@H](Cc2ccc(C(=O)O)cc2)N(C)C(=O)[C@H](Cc2cccc(C(=O)NCCOCCOCCOCCOCCC(=O)O)c2)NC(=O)[C@H](CCCNC(=N)N)NC(=O)[C@H](CCC(N)=O)NC(=O)[C@H]([C@@H](C)CC)NC1=O [compound 116] ({CH2CO}-AV[NMePhe(3-Cl)]VWN[3Pal(6-NH2)]Y(Carboxymethyl)IIQR[X1](PEG4)[NMePhe(4-COOH)]C[PEG4]-NH2; thioether N-15) | 35.2 nM | 8.49 nM | – | –
2 | CC[C@H](C)[C@@H]1NC(=O)[C@H](Cc2ccc(OCC(=O)N3CCN(CC(=O)O)CC3)cc2)NC(=O)[C@H](Cc2ccc(O)cc2)NC(=O)[C@H](CC(N)=O)NC(=O)[C@H](Cc2c[nH]c3ncccc23)NC(=O)[C@H](C(C)C)NC(=O)[C@H](Cc2cccc(Cl)c2)N(C)C(=O)[C@H](C(C)C)NC(=O)[C@H](C)NC(=O)CSC[C@@H](C(=O)NCCOCCOCCOCCOCCC(N)=O)NC(=O)[C@H](Cc2ccc(O)cc2)N(C)C(=O)[C@H](Cc2ccncc2)NC(=O)[C@H](CCCCN2CCOCC2)NC(=O)[C@H](CCC(N)=O)NC(=O)[C@H]([C@@H](C)CC)NC1=O [compound 23] | – | – | 33.4 nM | 3.45 nM
3 | CC[C@H](C)[C@@H]1NC(=O)[C@H](Cc2ccc(OC)cc2)NC(=O)[C@H](Cc2ccc(N)nc2)NC(=O)[C@H](CC(N)=O)NC(=O)[C@H](Cc2c[nH]c3ccccc23)N(C)C(=O)[C@H](C(C)C)NC(=O)[C@H](Cc2cccc(Cl)c2)N(C)C(=O)[C@H](C(C)C)NC(=O)[C@H](C)NC(=O)CSC[C@@H](C(=O)NCCOCCOCCOCCOCCC(N)=O)NC(=O)[C@H](Cc2ccc(O)cc2)N(C)C(=O)[C@H](Cc2ccccc2)NC(=O)[C@H](CCCNC(=N)N)NC(=O)[C@H](CCC(=O)NCCCN)NC(=O)[C@H]([C@@H](C)CC)NC1=O [compound 172] ({CH2CO}-AV[NMePhe(3-Cl)]V[NMeW]N[3Pal(6-NH2)]Y(Me)IIE(NH(CH2)3NH2)RF[NMeY]C[PEG4]-NH2; thioether N-15) | – | – | 2.59 nM | 0.215 nM
4 | CCC(CC)[C@@H]1NC(=O)[C@H](Cc2ccc(O)cc2)NC(=O)[C@H](Cc2ccc(O)cc2)NC(=O)[C@H](CC(N)=O)NC(=O)[C@H](Cc2c[nH]c3ccccc23)N(C)C(=O)[C@H](C(C)C)NC(=O)[C@H](Cc2ccccc2)N(C)C(=O)[C@H](C(C)C)NC(=O)[C@H](C)NC(=O)CSC[C@@H](C(=O)NCCOCCOCCOCCOCCC(N)=O)NC(=O)[C@H](Cc2ccc(C(=O)O)cc2)N(C)C(=O)[C@H](Cc2cccc(C(=O)NCCOCCOCCOCCOCCC(=O)O)c2)NC(=O)[C@H](CCCNC(=N)N)NC(=O)[C@H](CCCCN)NC(=O)[C@H]([C@@H](C)CC)NC1=O [compound 122] ({CH2CO}-AV[NMeF]V[NMeW]NYY[Nva(3-Et)]IKR[X1](PEG4)[NMePhe(4-COOH)]C[PEG4]-NH2; thioether N-15) | 15.3 nM | 5.19 nM | – | –
5 | CC[C@H](C)[C@@H]1NC(=O)[C@H](Cc2ccc(OC)cc2)NC(=O)[C@H](CCCNC(=N)N)NC(=O)[C@H](CC(N)=O)NC(=O)[C@H](Cc2c[nH]c3ccccc23)N(C)C(=O)[C@H](C(C)C)NC(=O)[C@H](Cc2cccc(Cl)c2)N(C)C(=O)[C@H](C(C)C)NC(=O)[C@H](C)NC(=O)CSC[C@@H](C(=O)NCCOCCOCCOCCOCCC(N)=O)NC(=O)[C@H](Cc2ccc(O)cc2)N(C)C(=O)[C@H](Cc2ccccc2)NC(=O)[C@H](CCCNC(=N)N)NC(=O)[C@H](CCC(=O)NCCCN)NC(=O)[C@H]([C@@H](C)CC)NC1=O [compound 175] ({CH2CO}-AV[NMePhe(3-Cl)]V[NMeW]NRY(Me)IIE(NH(CH2)3NH2)RF[NMeY]C[PEG4]-NH2; thioether N-15) | – | – | 12.2 nM | 3.04 nM
6 | CCC(CC)[C@@H]1NC(=O)[C@H](Cc2ccc(OCC(=O)O)cc2)NC(=O)[C@H](Cc2ccc(N)nc2)NC(=O)[C@H](CC(N)=O)NC(=O)[C@H](Cc2cn(CC(=O)O)c3ccccc23)NC(=O)[C@H](C(C)C)NC(=O)[C@H](Cc2cccc(Cl)c2)N(C)C(=O)[C@H](C(C)C)NC(=O)[C@H](C)NC(=O)CSC[C@@H](C(=O)NCCOCCOCCOCCOCCC(N)=O)NC(=O)[C@H](Cc2ccc(C(=O)O)cc2)N(C)C(=O)[C@H](Cc2ccncc2)NC(=O)[C@H](CCCNC(=N)N)NC(=O)[C@H](CCC(=O)NCCOCCOCCOCCOCCOCCOCCOCCOC)NC(=O)[C@H]([C@@H](C)CC)NC1=O [compound 50] ({CH2CO}-AV[NMePhe(3-Cl)]V[Trp(1-CH2COOH)]N[3Pal(6-NH2)]Y(Carboxymethyl)[Nva(3-Et)]IE(NH(CH2CH2O)8Me)R[4Pal][NMePhe(4-COOH)]C[PEG4]-NH2; thioether N-15) | – | – | 1780 nM | 6500 nM
7 | CC[C@H](C)[C@@H]1NC(=O)[C@H](Cc2ccc(OCC(=O)O)cc2)NC(=O)[C@H](Cc2ccc(N)nc2)NC(=O)[C@H](CC(N)=O)NC(=O)[C@H](Cc2c[nH]c3ncccc23)NC(=O)[C@H](C(C)C)NC(=O)[C@H](Cc2cccc(Cl)c2)N(C)C(=O)[C@H](C(C)C)NC(=O)[C@H](C)NC(=O)CSC[C@@H](C(=O)NCCOCCOCCOCCOCCC(N)=O)NC(=O)[C@H](Cc2ccc(O)cc2)N(C)C(=O)[C@H](Cc2ccncc2)NC(=O)[C@H](CCCCN2CCOCC2)NC(=O)[C@H](CCCCNC(=O)N2CCN(CC(=O)O)CC2)NC(=O)[C@H]([C@@H](C)CC)NC1=O [compound 15] ({CH2CO}-AV[NMePhe(3-Cl)]V[Trp(7-aza)]N[3Pal(6-NH2)]Y(Carboxymethyl)IIK([CO-Piperazinyl(4-CH2COOH)])[Nle(6-morpholino)][4Pal][NMeY]C[PEG4]-NH2; thioether N-15) | – | – | 102 nM | 15.9 nM
8 | CC[C@H](C)[C@@H]1NC(=O)[C@H](Cc2ccc(OC)cc2)NC(=O)[C@H](Cc2ccc(N)nc2)NC(=O)[C@H](CC(N)=O)NC(=O)[C@H](Cc2c[nH]c3ccccc23)N(C)C(=O)[C@H](C(C)C)NC(=O)[C@H](Cc2cccc(Cl)c2)N(C)C(=O)[C@H](C(C)C)NC(=O)[C@H](C)NC(=O)CSC[C@@H](C(=O)NCCOCCOCCOCCOCCC(N)=O)NC(=O)[C@H](Cc2ccc(O)cc2)N(C)C(=O)[C@H](Cc2ccccc2)NC(=O)[C@H](CCCNC(=N)N)NC(=O)[C@H](CCC(N)=O)NC(=O)[C@H]([C@@H](C)CC)NC1=O [compound 170] ({CH2CO}-AV[NMePhe(3-Cl)]V[NMeW]N[3Pal(6-NH2)]Y(Me)IIQRF[NMeY]C[PEG4]-NH2; thioether N-15) | – | – | 7.61 nM | 1.34 nM
9 | CC[C@H](C)[C@@H]1NC(=O)[C@H](Cc2ccc(OC)cc2)NC(=O)[C@H](Cc2ccc(N)nc2)NC(=O)[C@H](CC(N)=O)NC(=O)[C@H](Cc2c[nH]c3ncccc23)NC(=O)[C@H](C(C)C)NC(=O)[C@H](Cc2cccc(Cl)c2)N(C)C(=O)[C@H](C(C)C)NC(=O)[C@H](C)NC(=O)CSC[C@@H](C(=O)NCCOCCOCCOCCOCCC(N)=O)NC(=O)[C@H](Cc2ccc(O)cc2)N(C)C(=O)[C@H](Cc2ccncc2)NC(=O)[C@H](CCCNC(=N)N)NC(=O)[C@H](CCCCN2CCOCC2)NC(=O)[C@H]([C@@H](C)CC)NC1=O [compound 2] ({CH2CO}-AV[NMePhe(3-Cl)]V[Trp(7-aza)]N[3Pal(6-NH2)]Y(Me)II[Nle(6-morpholino)]R[4Pal][NMeY]C[PEG4]-NH2; thioether N-15) | – | – | 16.2 nM | 0.888 nM
10 | CC[C@H](C)[C@@H]1NC(=O)[C@H](Cc2ccc(OC)cc2)NC(=O)[C@H](Cc2ccc(N)nc2)NC(=O)[C@H](CC(N)=O)NC(=O)[C@H](Cc2c[nH]c3ncccc23)NC(=O)[C@H](C(C)C)NC(=O)[C@H](Cc2cccc(Cl)c2)N(C)C(=O)[C@H](C(C)C)NC(=O)[C@H](C)NC(=O)CSC[C@@H](C(=O)NCCOCCOCCOCCOCCC(N)=O)NC(=O)[C@H](Cc2ccc(O)cc2)N(C)C(=O)[C@H](Cc2ccncc2)NC(=O)[C@H](CCCCNC(=O)N2CCN(CC(=O)O)CC2)NC(=O)[C@H](CCCCN2CCOCC2)NC(=O)[C@H]([C@@H](C)CC)NC1=O [compound 5] ({CH2CO}-AV[NMePhe(3-Cl)]V[Trp(7-aza)]N[3Pal(6-NH2)]Y(Me)II[Nle(6-morpholino)]K([CO-Piperazinyl(4-CH2COOH)])[4Pal][NMeY]C[PEG4]-NH2; thioether N-15) | – | – | 117 nM | 6.31 nM
11 | CC[C@H](C)[C@@H]1NC(=O)[C@H](Cc2ccc(OCC(=O)N3CCN(CC(=O)O)CC3)cc2)NC(=O)[C@H](Cc2ccc(O)cc2)NC(=O)[C@H](CC(N)=O)NC(=O)[C@H](Cc2cn(CC(=O)O)c3ccccc23)NC(=O)[C@H](C(C)C)NC(=O)[C@H](Cc2cccc(Cl)c2)N(C)C(=O)[C@H](C(C)C)NC(=O)[C@H](C)NC(=O)CSC[C@@H](C(=O)NCCOCCOCCOCCOCCC(N)=O)NC(=O)[C@H](Cc2ccc(O)cc2)N(C)C(=O)[C@H](Cc2ccncc2)NC(=O)[C@H](CCCCN2CCOCC2)NC(=O)[C@H](CCC(=O)NCCOCCOCCOCCOCCOCCOCCOCCOC)NC(=O)[C@H]([C@@H](C)CC)NC1=O [compound 22] | – | – | 205 nM | 4.11 nM
12 | CCC(CC)[C@@H]1NC(=O)[C@H](Cc2ccc(OCC(=O)O)cc2)NC(=O)[C@H](Cc2ccc(O)cc2)NC(=O)[C@H](CC(N)=O)NC(=O)[C@H](Cc2cn(CC(=O)O)c3ccccc23)NC(=O)[C@H](C(C)C)NC(=O)[C@H](Cc2cccc(Cl)c2)N(C)C(=O)[C@H](C(C)C)NC(=O)[C@H](C)NC(=O)CSC[C@@H](C(=O)NCCOCCOCCOCCOCCC(N)=O)NC(=O)[C@H](Cc2cccc(OC)c2)N(C)C(=O)[C@H](Cc2cccc(C(=O)O)c2)NC(=O)[C@H](CCCNC(=N)N)NC(=O)[C@H](CCC(N)=O)NC(=O)[C@H]([C@@H](C)CC)NC1=O [compound 95] ({CH2CO}-AV[NMePhe(3-Cl)]V[Trp(1-CH2COOH)]NYY(Carboxymethyl)[Nva(3-Et)]IQR[Phe(3-COOH)][NMePhe(3-OMe)]C[PEG4]-NH2; thioether N-15) | 67.9 nM | 10.6 nM | – | –
